Biological target: T1, Beta-hexosaminidase subunit alpha (Homo sapiens, UniProt P06865)
T1 sequence (P06865 whole entry): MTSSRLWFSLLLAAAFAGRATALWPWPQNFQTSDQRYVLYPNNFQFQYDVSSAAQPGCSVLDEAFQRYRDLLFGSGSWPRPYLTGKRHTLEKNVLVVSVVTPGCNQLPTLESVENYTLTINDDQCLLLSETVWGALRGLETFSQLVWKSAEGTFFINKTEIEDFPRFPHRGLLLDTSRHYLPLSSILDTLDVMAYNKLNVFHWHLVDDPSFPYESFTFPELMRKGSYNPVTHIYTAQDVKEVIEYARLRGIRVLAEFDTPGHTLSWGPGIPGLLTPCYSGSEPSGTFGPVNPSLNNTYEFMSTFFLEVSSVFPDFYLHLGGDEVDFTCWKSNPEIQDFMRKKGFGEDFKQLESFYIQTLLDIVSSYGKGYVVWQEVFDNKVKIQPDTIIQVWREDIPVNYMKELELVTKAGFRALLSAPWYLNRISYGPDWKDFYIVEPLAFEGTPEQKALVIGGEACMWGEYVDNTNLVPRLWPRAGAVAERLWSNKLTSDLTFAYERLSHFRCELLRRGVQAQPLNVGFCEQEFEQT
Assay: Enzyme Inhibition Assay
Details: 25 °C
Text: Enzyme assay based on 4-MU substrates with HTS to identify inhibitory compounds for Hex.

Compound | IC50 [µM]
O=C1c2cccc3cccc(c23)C(=O)N1CCCc1ccccn1 [M-31862] | 108
CC(O)CCN1C(=O)c2cccc3cccc(c23)C1=O (stereo not given) [M-31867] | 31
O=C1NC(=O)c2cccc3cccc1c23 [BTB12933] | 18

Further compounds by falling IC50, results first:

IC50 [µM] | Compound
138 | O=C1c2cccc3cccc(c23)C(=O)N1CC1CCCO1 (stereo not given) [M-31860]
16 | O=C1c2cccc3cccc(c23)C(=O)N1CCCO [5141402]
